Tested on: German cockroaches
Assay: Knockdown test on German cockroaches by spraying an oil solution
Type: in vivo, German cockroach (Blattella germanica)
Conditions: 0.00156% (w/v) oil solution, 1.5 ml sprayed from 60 cm height, ten German cockroaches (5 male, 5 female), repeated twice
Procedure: Each of the present invention compounds (1) and (2) (0.00156 parts) produced in the aforementioned Production Examples was dissolved in 10 parts of dichloromethane and the resulting solution was mixed with 89.99844 parts of deodorized kerosine to prepare a 0.00156% (w/v) oil solution.
Ten German cockroaches (5 of each male and female) were released in a test container (measuring 8.75 cm in diameter and 7.5 cm in height, bottom area covered with a 16 mesh wire netting) coated with butter at an inner wall, and the container was disposed on the bottom of a test chamber (bottom surface measuring 46 cm and 46 cm, 70 cm in height).
From 60 cm in height above the container, 1.5 ml of the oil solution of each of the present invention compounds (1) and (2) was sprayed using a spray gun (spray pressure: 0.4 kg/cm^2). Thirty seconds after spraying, the container was removed from the test chamber. After a given time, the number of knockdowned cockroaches was counted and a knockdown rate was determined (repeated twice). The knockdown rate was calculated by the following equation. Knockdown rate (%)=(number of knockdowned cockroaches/number of test cockroaches)×100
For comparison, a test was carried out in the same manner as described above, except that 2,5-dioxo-3-(2-propynyl)imidazolidinylmethyl=(1R)-trans-3-(2-methyl-1-propenyl)-2,2-dimethylcyclopropane carboxylate (compound described in “Pestiside Science”, 1979, 10, p. 291, hereinafter referred to as the comparative compound (1)) represented by the following formula: […]

| SMILES | Knockdown rate (%) after 2 minutes [%] |
| --- | --- |
| C#CCN1CC(=O)N(COC(=O)[C@@H]2[C@@H](C=C(C)C)C2(C)C)C1=O [Comparative compound (1), 2,5-dioxo-3-(2-propynyl)imidazolidinylmethyl=(1R)-trans-3-(2-methyl-1-propenyl)-2,2-dimethylcyclopropane carboxylate] | 45 |
| C#CCN1CC(=O)N(COC(=O)[C@@H]2[C@@H](/C=C(\C#N)C=C)C2(C)C)C1=O [Present invention compound (1), 2,5-dioxo-3-(2-propynyl)imidazolidinylmethyl=(1R)-trans-3-[(1Z)-2-cyano-1,3-butadienyl]-2,2-dimethylcyclopropane carboxylate] | 95 |
| C#CCN1CC(=O)N(COC(=O)[C@@H]2[C@@H](/C=C(C#N)/C=C/C)C2(C)C)C1=O [Present invention compound (2), 2,5-dioxo-3-(2-propynyl)imidazolidinylmethyl=(1R)-trans-3-[(1Z,3E)-2-cyano-1,3-pentadienyl]-2,2-dimethylcyclopropane carboxylate] | 100 |
| C#CCN1CC(=O)N(COC(=O)[C@@H]2[C@@H](/C=C(\C)C=C)C2(C)C)C1=O [comparative compound (2), 2,5-dioxo-3-(2-propynyl)imidazolidinylmethyl=(1R)-trans-3-[(1E)-2-methyl-1-butadienyl)-2,2-dimethylcyclopropane carboxylate] | 10 |

Reference: US8487115B2, “Hydantoin derivatives of cyano-substituted chrysanthemic acid esters and their use in pest control” (Sumitomo Chemical Company, Limited, priority 2010, dated 2013)
